Test results as given in patent US20250276983A1, “COMPOUNDS AND METHODS FOR MODULATING HER2” (IAMBIC THERAPEUTICS, INC., priority 2022, published 2025).
Like-named read-outs stand apart in the source and are kept apart here.

Tests used:
Type in all cases: cell-based
BaF3_HER2YVMA cells = assay: Cell growth inhibition assay, BaF3_HER2YVMA; conditions: BaF3_HER2YVMA cells, 3 days treatment, CellTiterGlo 2.0, read-out: HER2-YVMA IC50 (nM), cell growth inhibition
BaF3_HER2WT cells = assay: Cell growth inhibition assay, BaF3_HER2WT; conditions: 72 h, 3 days treatment, CellTiterGlo 2.0, read-out: HER2 WT IC50 (nM), cell growth inhibition
BaF3_EGFRWT cells = assay: Cell growth inhibition assay, BaF3_EGFRWT; conditions: 80 ng/mL recombinant human EGF, 3 days treatment, CellTiterGlo 2.0, read-out: EGFR WT IC50 (nM), cell growth inhibition

SMILES | IC50 (BaF3_HER2YVMA cells; 72 h) | IC50 (BaF3_HER2WT cells) | IC50 (BaF3_EGFRWT cells; 72 h) | IC50 (BaF3_EGFRWT cells) | IC50 (BaF3_HER2YVMA cells)
Cc1cc(Nc2ncnn3ccc(C4CCN(C(=O)/C=C/C(=O)O)CC4)c23)ccc1Oc1ccn2ncnc2c1 [Example 142, (E)-4-(4-(4-((4-([1,2,4]triazolo[1,5-a]pyridin-7-yloxy)-3-methylphenyl)amino)pyrrolo[2,1-f][1,2,4]triazin-5-yl)piperidin-1-yl)-4-oxobut-2-enoic acid] | 1500 to 5000 nM | 1500 to 5000 nM | 1500 to 5000 nM |  | 
Cc1cc(Nc2ncnn3ccc(C4CN(C(=O)/C=C/CN5CC(F)C5)C4)c23)ccc1Oc1ccn2ncnc2c1 [Example 38, (E)-1-(3-(4-((4-([1,2,4]triazolo[1,5-a]pyridin-7-yloxy)-3-methylphenyl)amino)pyrrolo[2,1-f][1,2,4]triazin-5-yl)azetidin-1-yl)-4-(3-fluoroazetidin-1-yl)but-2-en-1-one] | < 200 nM | < 200 nM | 1500 to 5000 nM |  | 
COC1(c2ccn3ncnc(Nc4ccc(Oc5ccn6ncnc6c5)c(C)c4)c23)CCN(C(=O)/C=C/CN(C)C)CC1 [Example 52, (E)-1-(4-(4-((4-([1,2,4]triazolo[1,5-a]pyridin-7-yloxy)-3-methylphenyl)amino)pyrrolo[2,1-f][1,2,4]triazin-5-yl)-4-methoxypiperidin-1-yl)-4-(dimethylamino)but-2-en-1-one] | 500 to 1500 nM | 200 to 500 nM | 1500 to 5000 nM |  | 
C=C(CN(C)C)C(=O)N1CC2CCC1CC2c1ccn2ncnc(Nc3ccc(Oc4ccn5ncnc5c4)c(C)c3)c12 (single isomer, unassigned) [Examples 135 and 136, first eluting isomer, 1-(5-(4-((4-([1,2,4]triazolo[1,5-a]pyridin-7-yloxy)-3-methylphenyl)amino)pyrrolo[2,1-f][1,2,4]triazin-5-yl)-2-azabicyclo[2.2.2]octan-2-yl)-2-((dimethylamino)methyl)prop-2-en-1-one] | < 200 nM | < 200 nM |  | 1500 to 5000 nM | 
Cc1cc(Nc2ncnn3ccc(C4CCN(C(=O)/C=C/[C@H]5CCCN5C)CC4)c23)ccc1Oc1ccn2ncnc2c1 [Example 25, (R,E)-1-(4-(4-((4-([1,2,4]triazolo[1,5-a]pyridin-7-yloxy)-3-methylphenyl)amino)pyrrolo[2,1-][1,2,4]triazin-5-yl)piperidin-1-yl)-3-(1-methylpyrrolidin-2-yl)prop-2-en-1-one] | < 200 nM | < 200 nM | 1500 to 5000 nM |  | 
Cc1cc(Nc2ncnn3ccc(N4CCC(N(C)C(=O)/C=C/CN(C)C)C4)c23)ccc1Oc1ccn2ncnc2c1 (stereo not drawn) [Example 70, (E)-N-(1-(4-((4-([1,2,4]triazolo[1,5-a]pyridin-7-yloxy)-3-methylphenyl)amino)pyrrolo[2,1-f][1,2,4]triazin-5-yl)pyrrolidin-3-yl)-4-(dimethylamino)-N-methylbut-2-enamide] | < 200 nM | < 200 nM | 1500 to 5000 nM |  | 
Cc1cc(Nc2ncnn3ccc(C4CCN(C(=O)/C=C/CN(C)C)C4)c23)ccc1Oc1ccn2ncnc2c1 (single isomer, unassigned) [Examples 99 and 100, first eluting isomer, (E)-1-(3-(4-((4-([1,2,4]triazolo[1,5-a]pyridin-7-yloxy)-3-methylphenyl)amino)pyrrolo[2,1-f][1,2,4]triazin-5-yl)pyrrolidin-1-yl)-4-(dimethylamino)but-2-en-1-one] |  | < 200 nM | 1500 to 5000 nM |  | < 200 nM
Cc1cc(Nc2ncnn3ccc(C4CCCN(C(=O)C(F)Cl)CC4)c23)ccc1Oc1ccn2ncnc2c1 (single isomer, unassigned) [Examples 145, 146, 147 and 148, first eluting isomer, 1-(4-(4-((4-([1,2,4]triazolo[1,5-a]pyridin-7-yloxy)-3-methylphenyl)amino)pyrrolo[2,1-f][1,2,4]triazin-5-yl)azepan-1-yl)-2-chloro-2-fluoroethan-1-one] |  | < 200 nM |  | 1500 to 5000 nM | 200 to 500 nM
CNC/C=C/C(=O)N1CCC(c2ccn3ncnc(Nc4ccc(Oc5ccn6ncnc6c5)c(C)c4)c23)CC1 [Example 177, (E)-1-(4-(4-((4-([1,2,4]triazolo[1,5-a]pyridin-7-yloxy)-3-methylphenyl)amino)pyrrolo[2,1-f][1,2,4]triazin-5-yl)piperidin-1-yl)-4-(methylamino)but-2-en-1-one] | < 200 nM | < 200 nM | 1500 to 5000 nM |  | 
Cc1cc(Nc2ncnn3ccc(C4CN(C(=O)/C=C/C5CCCN5C)C4)c23)ccc1Oc1ccn2ncnc2c1 (stereo not drawn) [Example 66, (E)-1-(3-(4-((4-([1,2,4]triazolo[1,5-a]pyridin-7-yloxy)-3-methylphenyl)amino)pyrrolo[2,1-f][1,2,4]triazin-5-yl)azetidin-1-yl)-3-(1-methylpyrrolidin-2-yl)prop-2-en-1-one] | < 200 nM | < 200 nM | 1500 to 5000 nM |  | 
Cc1cc(Nc2ncnn3ccc(N4C5CCC4CN(C(=O)/C=C/CN(C)C)C5)c23)ccc1Oc1ccn2ncnc2c1 [Example 45, (E)-1-(8-(4-((4-([1,2,4]triazolo[1,5-a]pyridin-7-yloxy)-3-methylphenyl)amino)pyrrolo[2,1-f][1,2,4]triazin-5-yl)-3,8-diazabicyclo[3.2.1]octan-3-yl)-4-(dimethylamino)but-2-en-1-one] | < 200 nM | < 200 nM | 1500 to 5000 nM |  | 
C=CC(=O)N1C2CCC1CC(c1ccn3ncnc(Nc4ccc(Oc5ccn6ncnc6c5)c(C)c4)c13)C2 (single isomer, unassigned) [Examples 124 and 125, first eluting isomer, 1-(3-(4-((4-([1,2,4]triazolo[1,5-a]pyridin-7-yloxy)-3-methylphenyl)amino)pyrrolo[2,1-f][1,2,4]triazin-5-yl)-8-azabicyclo[3.2.1]octan-8-yl)prop-2-en-1-one] | < 200 nM | < 200 nM | < 200 nM |  | 
Cc1cc(Nc2ncnn3cc(F)c(C4CCN(C(=O)/C=C/CN(C)C)CC4)c23)ccc1Oc1ccn2ncnc2c1 [Example 152, (E)-1-(4-(4-((4-([1,2,4]triazolo[1,5-a]pyridin-7-yloxy)-3-methylphenyl)amino)-6-fluoropyrrolo[2,1-f][1,2,4]triazin-5-yl)piperidin-1-yl)-4-(dimethylamino)but-2-en-1-one] | < 200 nM | < 200 nM | 1500 to 5000 nM |  | 
C=CC(=O)N1CC(N(C)c2ccn3ncnc(Nc4ccc(Oc5ccn6ncnc6c5)c(C)c4)c23)C1 [Example 77, 1-(3-((4-((4-([1,2,4]triazolo[1,5-a]pyridin-7-yloxy)-3-methylphenyl)amino)pyrrolo[2,1-f][1,2,4]triazin-5-yl)(methyl)amino)azetidin-1-yl)prop-2-en-1-one] | 1500 to 5000 nM | 200 to 500 nM | 1500 to 5000 nM |  | 
Cc1cc(Nc2ncnn3ccc(C4CN(C(=O)/C=C/C56CCCN5CCC6)C4)c23)ccc1Oc1ccn2ncnc2c1 [Example 159, (E)-1-(3-(4-((4-([1,2,4]triazolo[1,5-a]pyridin-7-yloxy)-3-methylphenyl)amino)pyrrolo[2,1-f][1,2,4]triazin-5-yl)azetidin-1-yl)-3-(tetrahydro-1H-pyrrolizin-7a(5H)-yl)prop-2-en-1-one] | < 200 nM | < 200 nM | 1500 to 5000 nM |  | 
Cc1cc(Nc2ncnn3ccc(C4CCN(C(=O)/C=C/CN)CC4)c23)ccc1Oc1ccn2ncnc2c1 [Example 150, (E)-1-(4-(4-((4-([1,2,4]triazolo[1,5-a]pyridin-7-yloxy)-3-methylphenyl)amino)pyrrolo[2,1-f][1,2,4]triazin-5-yl)piperidin-1-yl)-4-aminobut-2-en-1-one] | 1500 to 5000 nM | 500 to 1500 nM | 1500 to 5000 nM |  | 
Cc1cc(Nc2ncnn3ccc(C4CN(C(=O)/C=C\C56CCCN5CCC6)C4)c23)ccc1Oc1ccn2ncnc2c1 [Example 160, (Z)-1-(3-(4-((4-([1,2,4]triazolo[1,5-a]pyridin-7-yloxy)-3-methylphenyl)amino)pyrrolo[2,1-f][1,2,4]triazin-5-yl)azetidin-1-yl)-3-(tetrahydro-1H-pyrrolizin-7a(5H)-yl)prop-2-en-1-one] | < 200 nM | < 200 nM | 1500 to 5000 nM |  | 
Cc1cc(Nc2ncnn3ccc(C4(O)CCN(C(=O)/C=C/CN(C)C)CC4)c23)ccc1Oc1ccn2ncnc2c1 [Example 50, (E)-1-(4-(4-((4-([1,2,4]triazolo[1,5-a]pyridin-7-yloxy)-3-methylphenyl)amino)pyrrolo[2,1-f][1,2,4]triazin-5-yl)-4-hydroxypiperidin-1-yl)-4-(dimethylamino)but-2-en-1-one] | 500 to 1500 nM | 200 to 500 nM | 1500 to 5000 nM |  | 
Cc1cc(Nc2ncnn3cnc(C4CCN(C(=O)/C=C/CN(C)C)CC4)c23)ccc1Oc1ccn2ncnc2c1 [Example 88, (E)-1-(4-(4-((4-([1,2,4]triazolo[1,5-a]pyridin-7-yloxy)-3-methylphenyl)amino)imidazo[5,1-f][1,2,4]triazin-5-yl)piperidin-1-yl)-4-(dimethylamino)but-2-en-1-one] | 1500 to 5000 nM | 500 to 1500 nM | 1500 to 5000 nM |  | 
Cc1cc(Nc2ncnn3ccc(C4CCN(C(=O)[C@@H](F)Cl)CC4)c23)ccc1Oc1ccn2ncnc2c1 (single isomer, unassigned) [Examples 173 and 174, second eluting isomer] | < 200 nM | < 200 nM | 1500 to 5000 nM |  | 
Cc1cc(Nc2ncnn3ccc(C4CN(C(=O)/C=C/CC(C)C)C4)c23)ccc1Oc1ccn2ncnc2c1 [Example 43, (E)-1-(3-(4-((4-([1,2,4]triazolo[1,5-a]pyridin-7-yloxy)-3-methylphenyl)amino)pyrrolo[2,1-f][1,2,4]triazin-5-yl)azetidin-1-yl)-5-methylhex-2-en-1-one] | 200 to 500 nM | < 200 nM | 1500 to 5000 nM |  | 
